Earlier results in patent publication US10849879B2, “Localized modulation of tissues and cells to enhance therapeutic effects including renal denervation” (Mercator MedSystems, Inc., priority 2011, dated 2020).
Several values for one entry are separate records, joined by “and”; a condition that tells them apart may be missing. Identical values can stand only once.

System: axon

Substance: (2-(Hexahydro-1(2H)-azocinyl)ethyl)guanidine sulfate (1:1) [guanethidine monosulfate]
- concentrations producing axon retraction in vitro: ≥ 0.2 mM and ≥ 60 μg/mL
